# Experimental data as given in US20240325319A1, “INHIBITORS OF AMYLOID BETA OLIGOMERIZATION AND THERAPEUTIC USES THEREOF” (Northwestern University, priority 2021, published 2024).
# Entries after “also recorded” stand apart in the source; their conditions may differ. Where a SMILES comes first, the peptide text is derived from it. The star is where a group is joined. Cbz = O=C(OCc1ccccc1)*
# Experiments:
# AβOs bound to neurons = experiment: AβOs bound to dendrites of hippocampal neurons treated with Aβ42 monomer (immunofluorescence, NU2/NU4); format: cell-based, rat; details: for AβO accumulation under cathepsin L inhibition: 10 μM cathepsin L inhibitor 1 h, 500 nM Aβ 30 min; for influence of lysosome acidification inhibitor on the effect of NU-9: Bafilomycin A 100 nM, 30 min prior to 3 μM NU-9, then 500 nM Aβ monomer 30 min
# cathepsin L = cathepsin L (Homo sapiens, UniProt P07711); experiment: Purified cathepsin L enzyme activity (Z-FR-AMC to 7-AMC); format: biochemical; details: same concentration range (0.0003-150 μM)
# Experimental: FIG. 26. A) 0.0003-150 μM NU-9 was combined with purified cathepsin L enzyme in the presence of the cathepsin L substrate Z-FR-AMC. Cathepsin L enzyme activity was measured by the rate of 7-AMC production by fluorescence. Percent change in rate was quantified in the graph. […] B) Mature hippocampal neurons were treated with NU-9 for 30 minutes, then Magic Red was used to monitor intracellular cathepsin L activity. Cells were treated in 3 wells, and 9-22 images were analyzed per condition.
# No effect of 0.0003-150 μM NU-9 was observed on the cathepsin L activity as measured by the production rate of 7-AMC from Z-FR-AMC by purified cathepsin L enzyme.
# cathepsin B = cathepsin B (Homo sapiens, UniProt P07858); experiment: Purified cathepsin B enzyme activity (Z-RR-AMC to 7-AMC); format: biochemical; details: same concentration range (0.0003-30 μM)
# Experimental: FIG. 28. A) 0.0003-30 μM NU-9 was combined with purified cathepsin B enzyme in the presence of the cathepsin B substrate Z-RR-AMC. Cathepsin B enzyme activity was measured by the rate of 7-AMC production by fluorescence. Percent change in rate with NU-9 was quantified in the graph. […] B) Mature hippocampal neurons were treated with NU-9 for 30 minutes, then Magic Red was used to monitor intracellular cathepsin L activity. Cells were treated in 3 wells.
# acidic lysosomes = experiment: Lysotracker labelling of acidic compartments in hippocampal neurons; format: cell-based, rat; details: addition of control Bafilomycin A
# Experimental: FIG. 24. Mature E18 hippocampal neurons were treated 3 μM NU-9, and subsequently labelled with lysotracker. A) total immunofluorescence (integrated density), B) mean intensity, C) average size of acidic compartments, D) number of acidic compartments.
# cathepsin L, sequence (P07711 114-333, species assumed): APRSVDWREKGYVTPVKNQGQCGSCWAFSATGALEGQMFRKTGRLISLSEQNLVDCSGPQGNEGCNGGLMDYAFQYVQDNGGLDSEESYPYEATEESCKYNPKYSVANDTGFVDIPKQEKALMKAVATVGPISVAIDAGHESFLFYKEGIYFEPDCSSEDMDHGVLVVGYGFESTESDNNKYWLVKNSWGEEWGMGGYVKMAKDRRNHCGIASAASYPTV
compound,measurement,setting,value
O=C[C@H](Cc1ccc(O)cc1)NC(=O)[C@H](Cc1ccccc1)NC(=O)OCc1ccccc1 [Z-FY-CHO] (Cbz-Phe-Tyr-aldehyde),AβO accumulation under cathepsin L inhibition,AβOs bound to neurons,mimicked the effect of NU-9
same,AβO accumulation under cathepsin L inhibition,AβOs bound to neurons; listed as Cathepsin L inhibitor,prevents AβO accumulation
same,"cathepsin L activity, standard inhibitor",cathepsin L,reduced cathepsin L activity
CC(C)C[C@@H](C=O)NC(=O)[C@H](CC(C)C)NC(=O)[C@H](CC(C)C)NC(=O)OCc1ccccc1 [MG132] (Cbz-Leu-Leu-Leu-aldehyde),formation of AβOs under proteasome inhibition,"AβOs bound to neurons; 100 nM MG132 30-min pre-treatment, 500 nM Aβ42",no effect on formation of AβOs
same,influence of proteasome inhibition on reduction of AβO accumulation by NU-9,"AβOs bound to neurons; 100 nM MG132 30 min, 3 μM NU-9 30 min, 500 nM Aβ42",no effect on formation of AβOs or reduction of AβO accumulation by NU-9
MDL-28170,AβO accumulation under calpain inhibition,"AβOs bound to neurons; 10 μM MDL-28170 30 min, 500 nM Aβ42 30 min",reducing AβO accumulation; also recorded: may mimic the effect of NU-9
CCCNC(=O)[C@H]1O[C@@H]1C(=O)N[C@H](C(=O)N1CCC[C@H]1C(=O)O)[C@@H](C)CC [CA-074],influence of cathepsin B inhibitor on the effect of NU-9,"AβOs bound to neurons; 10 μM CA-074 24 h, 3 μM NU-9 30 min, 500 nM Aβ monomer 30 min",prevented the effect of NU-9
same,"cathepsin B activity, standard inhibitor",cathepsin B,Clear inhibition of enzyme activity
CO/C1=C\C(C)=C\[C@@H](C)[C@@H](O)[C@@H](C)C/C(C)=C/C=C/[C@H](OC)[C@@H]([C@@H](C)[C@@H](O)[C@H](C)[C@@]2(O)C[C@@H](O)[C@H](C)[C@@H](C(C)C)O2)OC1=O [Bafilomycin A],neuron-binding AβOs with lysosome inhibitor in the absence of NU-9,"AβOs bound to neurons; 100 nM bafilomycin A 30 min, Aβ monomer 500 nM 30 min, vs Aβ monomer alone",did not lead to the formation of significantly more neuron-binding AβOs
same,influence of lysosome acidification inhibitor on the effect of NU-9,AβOs bound to neurons,prevents the effect of NU-9 on AβOs bound to synapses; also recorded: significantly prevented the effect of NU-9
same,influence of lysosome acidification inhibitor on the effect of NU-9,AβOs bound to neurons; listed as Bafilomyicin A,prevented the effect of NU-9
same,"integrated fluorescent density of lysotracker, control",acidic lysosomes,significantly reduced
Ic1cccc(/C=N/Nc2nc(N3CCOCC3)nc(N(c3ccccc3)c3ccccc3)n2)c1 [vacuolin-1],influence of inhibition of lysosome maturation and exocytosis on NU-9,"AβOs bound to neurons; 1 μM vacuolin-1 1 h pre-treatment, 3 μM NU-9 30 min, 500 nM Aβ42",prevented the effectiveness of NU-9
CC(C)C[C@H](NC(=O)[C@H]1O[C@@H]1C(=O)O)C(=O)NCCCCN=C(N)N [E64],"number of bound AβOs, inhibitor alone","AβOs bound to neurons; E64 10 μM, 24 h, Aβ monomer 500 nM 30 min",significantly reduced the number of bound AβOs
same,influence of cysteine cathepsin inhibitor on the effect of NU-9,"AβOs bound to neurons; E64 10 μM, 24 h, then NU-9 3 μM 30 min, Aβ monomer 500 nM 30 min",did not significantly change the effectiveness of NU-9; also recorded: does not prevent the effect of NU-9
